The values that follow are results of earlier work, collected in patent publication US8968755B2, “Topical base and active agent-containing compositions, and methods for improving and treating skin” (priority 2010, dated 2015).

For `CCCCCCCCCCCCCCCCCCO` [Stearyl alcohol, 1-octadecanol], the solubility in water result is recorded as “insoluble in water”.
